Laboratory results from US7932271B2, “Heterocyclic methyl sulfone derivative” (Daiichi Pharmaceutical Co., Ltd., priority 2003, dated 2011).
Structures can show the parent of a compound that is named as a salt.

SMILES: NCCNC(=S)c1ccc(C(c2cc(F)ccc2F)S(=O)(=O)c2ccc(Cl)cc2)nc1 (stereo not shown) (as salt: hydrochloride) [Example 142, N-(2-Aminoethyl)-6-[(4-chlorophenylsulfonyl)(2,5-difluorophenyl)methyl]thionicotinamide]
- melting point: 164 to 166 °C

SMILES: O=C1NCCCN1c1cc(C(c2cc(F)ccc2F)S(=O)(=O)c2ccc(Cl)cc2)c(Cl)cn1 (stereo not shown) [Example 190, 1-[5-Chloro-4-[(4-chlorophenylsulfonyl)-(2,5-difluorophenyl)methyl]pyridin-2-yl]tetrahydropyrimidin-2-one]
- melting point: > 230 °C

SMILES: O=C(O)c1cnc(C(c2cc(F)ccc2F)S(=O)(=O)c2ccc(Cl)cc2)c(F)c1 (stereo not shown) [Example 127, 6-(4-Chlorophenylsulfonyl)(2,5-difluorophenyl)methyl-5-fluoronicotinic acid]
- melting point: 249 to 251 °C

SMILES: O=S(=O)(CCO)Nc1cc(C(c2cc(F)ccc2F)S(=O)(=O)c2ccc(Cl)cc2)c(Cl)cn1 (stereo not shown) [Example 284, N-[5-Chloro-4-[(4-chlorophenylsulfonyl)(2,5-difluorophenyl)methyl]pyridin-2-yl]-2-hydroxyethanesulfonamide]
- melting point: 155 to 158 °C

SMILES: O=C(O)c1cccc(C(c2cc(F)ccc2F)S(=O)(=O)c2ccc(Cl)cc2)n1 (stereo not shown) [Example 146, 6-[(4-Chlorophenylsulfonyl)(2,5-difluorophenyl)methyl]picolinic acid]
- melting point: 200 to 201 °C

SMILES: O=S(=O)(c1ccc(Cl)cc1)C(c1ccncc1)C1CCOCC1 (stereo not shown) [Example 3, 4-[(4-Chlorophenylsulfonyl)(tetrahydropyran-4-yl)methyl]pyridine]
- melting point: 208 to 209 °C

SMILES: Fc1ccc(F)c(C(Sc2ccc(Cl)cc2)c2ccncc2Cl)c1 (stereo not shown) [Example 53, 3-Chloro-4-[(4-chlorophenylthio)-(2,5-difluorophenyl)methyl]pyridine]
- melting point: 70 to 72 °C

SMILES: COc1ccc(-n2ccnc2C(c2cc(F)ccc2F)S(=O)(=O)c2ccc(Cl)cc2)cc1 (stereo not shown) [Example 31, 2-[[(4-Chlorophenyl)sulfonyl]-(2,5-difluorophenyl)methyl]-1-(4-methoxyphenyl)-1H-imidazole]
- melting point: 150 to 151 °C

SMILES: O=S(=O)(c1ccc(Cl)cc1)C(c1cc[n+]([O-])cc1)c1cc(F)ccc1F (stereo not shown) [Example 52, 4-[(4-Chlorophenylsulfonyl)-(2,5-difluorophenyl)methyl]pyridine-N-oxide]
- melting point: 211 to 212 °C

SMILES: O=C1CCCN1CCCNc1cc(C(c2cc(F)ccc2F)S(=O)(=O)c2ccc(Cl)cc2)c(Cl)cn1 (stereo not shown) [Example 169, 1-[3-[[5-Chloro-4-[(4-chlorophenylsulfonyl)-(2,5-difluorophenyl)methyl]pyridin-2-yl]amino]propyl]pyrrolidin-2-one]
- melting point: 78 to 80 °C

SMILES: O=c1oc2ccccc2c(O)c1C(Sc1ccc(Cl)cc1)c1cc(F)ccc1F (stereo not shown)
- melting point: 146 to 147 °C

SMILES: CCOC(=O)C(=O)NCc1ccc(C(c2cc(F)ccc2F)S(=O)(=O)c2ccc(Cl)cc2)nc1 (stereo not shown) [Example 69, Ethyl 2-[[6-[(4-Chlorophenylsulfonyl)(2,5-difluorophenyl)methyl]pyridin-3-yl]methylamino]-2-oxoacetate]
- melting point: 193 to 194 °C

SMILES: C=CCOc1cccnc1C(c1cc(F)ccc1F)S(=O)(=O)c1ccc(Cl)cc1 (stereo not shown) [Example 18, 3-Allyloxy-2-[[(4-chlorophenyl)sulfonyl]-(2,5-difluorophenyl)methyl]pyridine]
- melting point: 119 to 120 °C

SMILES: O=S(=O)(c1ccc(Cl)cc1)C(c1ccc(CN2CCOCC2)cn1)c1cc(F)ccc1F (stereo not shown) [Example 49, 4-[[6-[(4-Chlorophenylsulfonyl)-(2,5-difluorophenyl)methyl]pyridin-3-yl]methyl]morpholine]
- melting point: 120 to 121 °C

SMILES: CC(=O)NCCCNc1cc(C(c2cc(F)ccc2F)S(=O)(=O)c2ccc(Cl)cc2)c(Cl)cn1 (stereo not shown) [Example 174, N-[3-[[5-Chloro-4-[(4-chlorophenylsulfonyl)-(2,5-difluorophenyl)methyl]pyridin-2-yl]amino]propyl]acetamide]
- melting point: 103 to 105 °C

SMILES: O=S(=O)(c1ccc(Cl)cc1)C(c1cncnc1)c1cc(F)ccc1F (stereo not shown) [Example 21, 5-[[(4-Chlorophenyl)sulfonyl]-(2,5-difluorophenyl)methyl]pyrimidine]
- melting point: 136 to 137 °C

SMILES: O=C(O)CCCc1cc(C(c2cc(F)ccc2F)S(=O)(=O)c2ccc(Cl)cc2)c(Cl)cn1 (stereo not shown) [Example 289, 4-[5-Chloro-4-[(4-chlorophenylsulfonyl)(2,5-difluorophenyl)methyl]pyridin-2-yl]butyric acid]
- melting point: 147 to 148 °C

SMILES: O=S(=O)(c1ccc(Cl)cc1)C(c1ccc[n+]([O-])c1)c1cc(F)ccc1F (stereo not shown) [Example 51, 3-[(4-Chlorophenylsulfonyl)-(2,5-difluorophenyl)methyl]pyridine-N-oxide]
- melting point: 183 to 184 °C

SMILES: O=S(=O)(c1ccc(Cl)cc1)C(c1cc(F)ccc1F)c1cc(NCCOCCO)ncc1Cl (stereo not shown) [Example 183, 2-[2-[5-Chloro-4-[(4-chlorophenylsulfonyl)(2,5-difluorophenyl)methyl]pyridin-2-ylamino]ethoxy]ethanol]
- melting point: 113 to 115 °C

SMILES: CN(C)S(=O)(=O)NCc1ccc(C(c2cc(F)ccc2F)S(=O)(=O)c2ccc(Cl)cc2)nc1 (stereo not shown) [Example 68, N-[[6-[(4-Chlorophenylsulfonyl)(2,5-difluorophenyl)methyl]pyridin-3-yl]methyl]-N′,N′-dimethylsulfamide]
- melting point: 177 to 178 °C

SMILES: O=S(=O)(c1ccc(Cl)cc1)C(c1ccccn1)c1cc(F)ccc1F (stereo not shown) [Example 13, 2-[[(4-Chlorophenyl)sulfonyl]-(2,5-difluorophenyl)methyl]pyridine]
- melting point: 171 to 172 °C

SMILES: O=C(NCCO)c1ccc(C(c2cc(F)ccc2F)S(=O)(=O)c2ccc(Cl)cc2)nc1 (stereo not shown) [Example 140, 6-[(4-Chlorophenylsulfonyl)(2,5-difluorophenyl)methyl]-N-(2-hydroxyethyl)nicotinamide]
- melting point: 179 to 181 °C

SMILES: O=S(=O)(c1ccc(Cl)cc1)C(c1cc(F)ccc1F)c1cc(Cl)ncc1Cl (stereo not shown) (hydrate or solvate) [Example 57, 2,5-Dichloro-4-[(4-chlorophenylsulfonyl)-(2,5-difluorophenyl)methyl]pyridine 0.5 hydrate]
- melting point: 147 to 148 °C

SMILES: O=C(O)c1cc(C(c2cc(F)ccc2F)S(=O)(=O)c2ccc(Cl)cc2)c(F)cn1 (stereo not shown) [Example 201, 4-[(4-Chlorophenylsulfonyl)(2,5-difluorophenyl)methyl]-5-fluoropicolinic acid]
- melting point: 208 to 209 °C

SMILES: O=S(=O)(c1ccc(Cl)cc1)C(c1cc(F)ccc1F)c1cc(CO)ncc1Br (stereo not shown) [Example 228, [5-Bromo-4-[(4-chlorophenylsulfonyl)(2,5-difluorophenyl)methyl]pyridin-2-yl]methanol]
- melting point: 172 to 173 °C

SMILES: O=S(=O)(c1ccc(Cl)cc1)C(c1cc(F)ccc1F)c1ncc(CO)cc1F (stereo not shown) [Example 125, [6-(4-Chlorophenylsulfonyl)(2,5-difluorophenyl)methyl-5-fluoropyridin-3-yl]methanol]
- melting point: 181 to 183 °C

SMILES: O=S(=O)(c1ccc(Cl)cc1)C(c1cccc(CCc2ccccn2)n1)c1cc(F)ccc1F (stereo not shown) [Example 152, 2-[(4-Chlorophenylsulfonyl)(2,5-difluorophenyl)methyl]-6-(2-pyridin-2-ylethyl)pyridine]
- melting point: 88 to 89 °C

SMILES: O=S(=O)(c1ccc(Cl)cc1)C(c1nccs1)c1cc(F)ccc1F (stereo not shown) [Example 30, 2-[[(4-Chlorophenyl)sulfonyl]-(2,5-difluorophenyl)methyl]thiazole]
- melting point: 163 to 164 °C

SMILES: O=S(=O)(c1ccc(Cl)cc1)C(c1cc(F)ccc1F)c1cc(NCCCNc2ncccn2)ncc1Cl (stereo not shown) [Example 175, N-[5-Chloro-4-[(4-chlorophenylsulfonyl)-(2,5-difluorophenyl)methyl]pyridin-2-yl]-N′-(pyrimidin-2-yl)propane-1,3-diamine]
- melting point: 176 to 178 °C

SMILES: NCCNC(=O)c1ccc(C(c2cc(F)ccc2F)S(=O)(=O)c2ccc(Cl)cc2)nc1 (stereo not shown) (as salt: hydrochloride) [Example 139, N-(2-Aminoethyl)-6-[(4-chlorophenylsulfonyl)(2,5-difluorophenyl)methyl]nicotinamide]
- melting point: > 250 °C (dec.)

SMILES: Nc1cc(C(c2cc(F)ccc2F)S(=O)(=O)c2ccc(Cl)cc2)c(Br)cn1 (stereo not shown) [Example 232, [5-Bromo-4-[(4-chlorophenylsulfonyl)(2,5-difluorophenyl)methyl]pyridin-2-yl]amine]
- melting point: 204 to 206 °C

SMILES: Fc1ccc(F)c(C(Sc2ccc(Cl)cc2)c2cc(Cl)ncc2Cl)c1 (stereo not shown) [Example 54, 2,5-Dichloro-4-[(4-chlorophenylthio)-(2,5-difluorophenyl)methyl]pyridine]
- melting point: 128 to 129 °C

SMILES: COc1ccc(CNc2cc(C(c3cc(F)ccc3F)S(=O)(=O)c3ccc(Cl)cc3)c(Cl)cn2)cc1OC (stereo not shown) [Example 186, 5-Chloro-4-[(4-chlorophenylsulfonyl)(2,5-difluorophenyl)methyl]-2-(3,4-dimethoxybenzylamino)pyridine]
- melting point: 204 to 206 °C

SMILES: NCCNc1cc(C(c2cc(F)ccc2F)S(=O)(=O)c2ccc(Cl)cc2)c(Cl)cn1 (stereo not shown) (as salt: hydrochloride) [Example 193, N-[5-Chloro-4-[(4-chlorophenylsulfonyl)-(2,5-difluorophenyl)methyl]pyridin-2-yl]ethane-1,2-diamine dihydrochloride]
- melting point: 163 to 166 °C

SMILES: NC(=O)/C=C/c1ccc(C(c2cc(F)ccc2F)S(=O)(=O)c2ccc(Cl)cc2)nc1 (stereo not shown) [Example 136, (E)-3-[6-[(4-Chlorophenylsulfonyl)(2,5-difluorophenyl)methyl]pyridin-3-yl]acrylamide]
- melting point: 219 to 220 °C

SMILES: COC(=O)CCc1ccc(C(c2cc(F)ccc2F)S(=O)(=O)c2ccc(Cl)cc2)nc1 (stereo not shown) [Example 45, Methyl 3-[6-[(4-chlorophenylsulfonyl)-(2,5-difluorophenyl)methyl]pyridin-3-yl]propionate]
- melting point: 121 to 123 °C

SMILES: O=C(O)/C=C/c1ccc(C(c2cc(F)ccc2F)S(=O)(=O)c2ccc(Cl)cc2)nc1 (stereo not shown) [Example 135, (E)-3-[6-[(4-Chlorophenylsulfonyl)(2,5-difluorophenyl)methyl]pyridin-3-yl]acrylic acid]
- melting point: 236 to 238 °C
